From patent US20160257997A1, “METHODS FOR WHOLE-CELL ANALYSIS OF GRAM-POSITIVE BACTERIA” (AdvanDx, Inc., priority 2009, published 2016)
In brackets after ≈: the same amount, converted by molar mass. Where two headings read alike, the source gives them in different places.

Legend:
S. aureus (MRSA) = assay: cefoxitin Etest susceptibility testing (MIC), MRSA; format: cell-based, Staphylococcus aureus
S. aureus (MSSA) = assay: cefoxitin Etest susceptibility testing (MIC), MSSA; format: cell-based, Staphylococcus aureus
MS-CNS = assay: cefoxitin Etest susceptibility testing (MIC), MS-CNS; format: cell-based, coagulase-negative staphylococci
MR-CNS = assay: cefoxitin Etest susceptibility testing (MIC), MR-CNS; format: cell-based, coagulase-negative staphylococci

MIC (S. aureus (MRSA); Staphylococcus aureus, ATCC 33591 / MRSA, cefoxitin Etest, Reference (ATCC 33591), SCCmec type III, read-out: MIC): ≥ 256 µg/mL
MIC (S. aureus (MRSA); Staphylococcus aureus, ATCC 33591 / MRSA, cefoxitin, strain 2, MRSA ATCC 33591, SCCmec III, read-out: MIC Etest): ≥ 256 µg/mL
MIC (S. aureus (MRSA); Staphylococcus aureus, ATCC 43300 / MRSA, cefoxitin Etest, Reference (ATCC 43300), SCCmec type II, read-out: MIC): 128 µg/mL (≈ 299 µM)
MIC (S. aureus (MRSA); Staphylococcus aureus, ATCC 43300 / MRSA, cefoxitin, strain 39, MRSA ATCC 43300, SCCmec II, read-out: MIC Etest): 128 µg/mL (≈ 299 µM)
MIC (S. aureus (MRSA); Staphylococcus aureus, MRSA / NCTC 10422, cefoxitin Etest, Reference (NCTC10422), SCCmec type Ib, read-out: MIC): ≥ 256 µg/mL
MIC (S. aureus (MRSA); Staphylococcus aureus, MRSA / USA300, cefoxitin Etest, Reference (USA300), SCCmec type IV, read-out: MIC): 48 µg/mL (≈ 112 µM)
MIC (S. aureus (MRSA); Staphylococcus aureus, MRSA / USA300, cefoxitin, strain 886, MRSA USA300, SCCmec IV, read-out: MIC Etest): 48 µg/mL (≈ 112 µM)
MIC (S. aureus (MRSA); Staphylococcus aureus, MRSA / USA500, cefoxitin Etest, Reference (USA500), SCCmec type IV, read-out: MIC): 48 µg/mL (≈ 112 µM)
MIC (S. aureus (MRSA); Staphylococcus aureus, MRSA, cefoxitin Etest, Reference (Clinical COL), SCCmec type I, read-out: MIC): ≥ 256 µg/mL
MIC (S. aureus (MRSA); Staphylococcus aureus, MRSA, cefoxitin Etest, Reference (Clinical EU), SCCmec type Ia, read-out: MIC): ≥ 256 µg/mL
MIC (S. aureus (MRSA); Staphylococcus aureus, MRSA, cefoxitin Etest, Reference (DK, SSI), SCCmec type IIIa, read-out: MIC): ≥ 256 µg/mL
MIC (S. aureus (MRSA); Staphylococcus aureus, MRSA, cefoxitin Etest, Reference (DK, SSI), SCCmec type V, read-out: MIC): 12 µg/mL (≈ 28.1 µM)
MIC (S. aureus (MRSA); Staphylococcus aureus, MRSA, cefoxitin, strain 9, MRSA EU, SCCmec I, read-out: MIC Etest): ≥ 256 µg/mL
MIC (S. aureus (MRSA); Staphylococcus aureus, MRSA, cefoxitin, strain 11, MRSA EU, SCCmec II, read-out: MIC Etest): ≥ 256 µg/mL
MIC (S. aureus (MRSA); Staphylococcus aureus, MRSA, cefoxitin, strain 13, MRSA, SCCmec IIIa, read-out: MIC Etest): ≥ 256 µg/mL
MIC (S. aureus (MRSA); Staphylococcus aureus, MRSA, cefoxitin, strain 306, MRSA DK, SCCmec V, read-out: MIC Etest): 12 µg/mL (≈ 28.1 µM)
MIC (S. aureus (MRSA); Staphylococcus aureus, MRSA, cefoxitin, strain 320, MRSA clinical DK, SCCmec IV, read-out: MIC Etest): ≥ 256 µg/mL
MIC (S. aureus (MRSA); Staphylococcus aureus, MRSA, cefoxitin, strain 1468, MRSA COL, SCCmec I, read-out: MIC Etest): ≥ 256 µg/mL
MIC (S. aureus (MRSA); cefoxitin Etest, strain 2, MRSA, Reference (ATCC 33591), type III): ≧256
MIC (S. aureus (MRSA); cefoxitin Etest, strain 9, MRSA, Reference EU, type I): ≧256
MIC (S. aureus (MRSA); cefoxitin Etest, strain 10, MRSA, Reference EU, type Ia): ≧256
MIC (S. aureus (MRSA); cefoxitin Etest, strain 11, MRSA, Reference EU, type II): ≧256
MIC (S. aureus (MRSA); cefoxitin Etest, strain 12, MRSA, Reference EU, type III): ≧256
MIC (S. aureus (MRSA); cefoxitin Etest, strain 13, MRSA, Reference EU, type IIIa): ≧256
MIC (S. aureus (MRSA); cefoxitin Etest, strain 15, MRSA, Clinical DK, type IV/ST80): 48 µg/mL (≈ 112 µM)
MIC (S. aureus (MRSA); cefoxitin Etest, strain 39, MRSA, Reference (ATCC 43300), type II (EVIGENE)): 128 µg/mL (≈ 299 µM)
MIC (S. aureus (MRSA); cefoxitin Etest, strain 295, MRSA, Reference DK, type IA): ≧256
MIC (S. aureus (MRSA); cefoxitin Etest, strain 297, MRSA, Reference DK, type IA, EVIGENE IV): 48 µg/mL (≈ 112 µM)
MIC (S. aureus (MRSA); cefoxitin Etest, strain 298, MRSA, Reference DK, type II): ≧256
MIC (S. aureus (MRSA); cefoxitin Etest, strain 299, MRSA, Reference DK, type II): ≧256
MIC (S. aureus (MRSA); cefoxitin Etest, strain 300, MRSA, Reference DK, type II): ≧256
MIC (S. aureus (MRSA); cefoxitin Etest, strain 302, MRSA, Reference DK, type IIIA): ≧256
MIC (S. aureus (MRSA); cefoxitin Etest, strain 303, MRSA, Reference DK, type III): ≧256
MIC (S. aureus (MRSA); cefoxitin Etest, strain 304, MRSA, Reference DK, type IV): 48 µg/mL (≈ 112 µM)
MIC (S. aureus (MRSA); cefoxitin Etest, strain 305, MRSA, Reference DK, type III): ≧256
MIC (S. aureus (MRSA); cefoxitin Etest, strain 306, MRSA, Reference DK, type V): 12 µg/mL (≈ 28.1 µM)
MIC (S. aureus (MRSA); cefoxitin Etest, strain 307, MRSA, Reference DK, type IV): 48 µg/mL (≈ 112 µM)
MIC (S. aureus (MRSA); cefoxitin Etest, strain 320, MRSA, Clinical DK, type IV (EVIGENE)): ≧256
MIC (S. aureus (MRSA); cefoxitin Etest, strain 321, MRSA, Clinical DK, type V (EVIGENE)): 96 µg/mL (≈ 225 µM)
MIC (S. aureus (MRSA); cefoxitin Etest, strain 460, MRSA, Reference, Tokyo, type V): 12 µg/mL (≈ 28.1 µM)
MIC (S. aureus (MRSA); cefoxitin Etest, strain 463, MRSA, Reference (NCTC10422), type Ib): ≧256
MIC (S. aureus (MRSA); cefoxitin Etest, strain 557, MRSA, Reference (USA300), type IV): 64 µg/mL (≈ 150 µM)
MIC (S. aureus (MRSA); cefoxitin Etest, strain 559, MRSA, Reference (USA300), type IV): ≧256
MIC (S. aureus (MRSA); cefoxitin Etest, strain 560, MRSA, Reference (USA500), type IV): 48 µg/mL (≈ 112 µM)
MIC (S. aureus (MRSA); cefoxitin Etest, strain 797, MRSA, Clinical DK, type II (EVIGENE)): 64 µg/mL (≈ 150 µM)
MIC (S. aureus (MRSA); cefoxitin Etest, strain 801, MRSA, Clinical DK, type II (EVIGENE)): ≧256
MIC (S. aureus (MRSA); cefoxitin Etest, strain 812, MRSA, Clinical DK, type II (EVIGENE)): ≧256
MIC (S. aureus (MRSA); cefoxitin Etest, strain 886, MRSA, Reference (FPR3757, USA300), type IV): 48 µg/mL (≈ 112 µM)
MIC (S. aureus (MRSA); cefoxitin Etest, strain 920, MRSA, Clinical DK, type I (EVIGENE)): ≧256
MIC (S. aureus (MRSA); cefoxitin Etest, strain 924, MRSA, Clinical DK, type IV (EVIGENE)): 96 µg/mL (≈ 225 µM)
MIC (S. aureus (MRSA); cefoxitin Etest, strain 926, MRSA, Clinical DK, type IV (EVIGENE)): 48 µg/mL (≈ 112 µM)
MIC (S. aureus (MRSA); cefoxitin Etest, strain 927, MRSA, Clinical DK, type IV): 24 µg/mL (≈ 56.1 µM)
MIC (S. aureus (MRSA); cefoxitin Etest, strain 931, MRSA, Clinical DK, type III (EVIGENE)): ≧256
MIC (S. aureus (MRSA); cefoxitin Etest, strain 1184, MRSA, Reference (ATCC BAA-1708), type II (EVIGENE)): 96 µg/mL (≈ 225 µM)
MIC (S. aureus (MRSA); cefoxitin Etest, strain 1468, MRSA, Reference (COL), type I): ≧256
MIC (S. aureus (MSSA); Staphylococcus aureus, ATCC 11632 / MSSA, cefoxitin Etest, MSSA Reference (ATCC 11632), read-out: MIC): 3 µg/mL (≈ 7.02 µM)
MIC (S. aureus (MSSA); Staphylococcus aureus, ATCC 25923 / MSSA, cefoxitin Etest, MSSA Reference (ATCC 25923), read-out: MIC): 3 µg/mL (≈ 7.02 µM)
MIC (S. aureus (MSSA); Staphylococcus aureus, ATCC 25923 / MSSA, cefoxitin, strain 155, MSSA ATCC 25923, read-out: MIC Etest): 3 µg/mL (≈ 7.02 µM)
MIC (S. aureus (MSSA); Staphylococcus aureus, ATCC 29213 / MSSA, cefoxitin Etest, MSSA Reference (ATCC 29213), read-out: MIC): 4 µg/mL (≈ 9.36 µM)
MIC (S. aureus (MSSA); Staphylococcus aureus, ATCC 29213 / MSSA, cefoxitin, strain 156, MSSA ATCC 29213, read-out: MIC Etest): 4 µg/mL (≈ 9.36 µM)
MIC (S. aureus (MSSA); Staphylococcus aureus, cefoxitin, MSSA (n = 15), read-out: MIC Etest): 3 to 4 µg/mL (≈ 7.02 to 9.36 µM)
MIC (S. aureus (MSSA); cefoxitin Etest, strain 1, MSSA, Reference (ATCC 6538)): 3 µg/mL (≈ 7.02 µM)
MIC (S. aureus (MSSA); cefoxitin Etest, strain 21, MSSA, Clinical EU): 4 µg/mL (≈ 9.36 µM)
MIC (S. aureus (MSSA); cefoxitin Etest, strain 22, MSSA, Clinical DK): 4 µg/mL (≈ 9.36 µM)
MIC (S. aureus (MSSA); cefoxitin Etest, strain 23, MSSA, Clinical DK): 3 µg/mL (≈ 7.02 µM)
MIC (S. aureus (MSSA); cefoxitin Etest, strain 24, MSSA, Clinical DK): 4 µg/mL (≈ 9.36 µM)
MIC (S. aureus (MSSA); cefoxitin Etest, strain 26, MSSA, Clinical DK): 4 µg/mL (≈ 9.36 µM)
MIC (S. aureus (MSSA); cefoxitin Etest, strain 54, MSSA, Clinical EU): 4 µg/mL (≈ 9.36 µM)
MIC (S. aureus (MSSA); cefoxitin Etest, strain 117, MSSA, Reference (ATCC 11632)): 3 µg/mL (≈ 7.02 µM)
MIC (S. aureus (MSSA); cefoxitin Etest, strain 155, MSSA, Reference (ATCC 25923)): 3 µg/mL (≈ 7.02 µM)
MIC (S. aureus (MSSA); cefoxitin Etest, strain 156, MSSA, Reference (ATCC 29213)): 4 µg/mL (≈ 9.36 µM)
MIC (MS-CNS; cefoxitin Etest, strain 629, MS-CNS, S. epidermidis, Reference (ATCC 14990)): 1.5 µg/mL (≈ 3.51 µM)
MIC (MS-CNS; cefoxitin, MS-CNS (n = 5), read-out: MIC Etest): 1.5 µg/mL (≈ 3.51 µM)
MIC (MR-CNS; strain 4, MR-CNS, S. epidermidis, Reference (ATCC 51625)): 32 µg/mL (≈ 74.9 µM)
MIC (MR-CNS; strain 154, MR-CNS, S. saccharolyticus, Reference (ATCC 14953)): ≧256
MIC (MR-CNS; strain 350, MR-CNS, S. epidermidis, Reference): ≧256
MIC (MR-CNS; strain 351, MR-CNS, S. warneri, Reference DK): 192 µg/mL (≈ 449 µM)
MIC (MR-CNS; strain 352, MR-CNS, S. epidermidis, Reference DK): 256 µg/mL (≈ 599 µM)
MIC (MR-CNS; strain 353, MR-CNS, S. hominis, Reference DK): 64 µg/mL (≈ 150 µM)
MIC (MR-CNS; strain 408, MR-CNS, Clinical DK): ≧256
MIC (MR-CNS; strain 412, MR-CNS, Clinical DK): ≧256
MIC (MR-CNS; strain 414, MR-CNS, Clinical DK): 256 µg/mL (≈ 599 µM)
Compound: CO[C@@]1(NC(=O)Cc2cccs2)C(=O)N2C(C(=O)O)=C(COC(N)=O)CS[C@@H]21 [cefoxitin]
